From patent publication US11945801B2, “Bicyclic aza compounds as muscarinic M1 and/or M4 receptor agonists” (Heptares Therapeutics Limited, priority 2018, dated 2024)
Where two headings read alike, the source gives them in different places.

Key:
[1] = target: T1, human muscarinic M4 receptor (Homo sapiens, UniProt P08173); test: Alphascreen Surefire phospho-ERK1/2 functional assay, M4; assay type: cell-based; conditions: for EC50 / % Emax cf. ACh, M4: CHO cells stably expressing human M4; for EC50: agonist 5 min, 37° C., read-out: pEC50 M4 (converted); for Emax: CHO
T1 construct: expressed in transfected cells
T1 sequence (P08173 1-479): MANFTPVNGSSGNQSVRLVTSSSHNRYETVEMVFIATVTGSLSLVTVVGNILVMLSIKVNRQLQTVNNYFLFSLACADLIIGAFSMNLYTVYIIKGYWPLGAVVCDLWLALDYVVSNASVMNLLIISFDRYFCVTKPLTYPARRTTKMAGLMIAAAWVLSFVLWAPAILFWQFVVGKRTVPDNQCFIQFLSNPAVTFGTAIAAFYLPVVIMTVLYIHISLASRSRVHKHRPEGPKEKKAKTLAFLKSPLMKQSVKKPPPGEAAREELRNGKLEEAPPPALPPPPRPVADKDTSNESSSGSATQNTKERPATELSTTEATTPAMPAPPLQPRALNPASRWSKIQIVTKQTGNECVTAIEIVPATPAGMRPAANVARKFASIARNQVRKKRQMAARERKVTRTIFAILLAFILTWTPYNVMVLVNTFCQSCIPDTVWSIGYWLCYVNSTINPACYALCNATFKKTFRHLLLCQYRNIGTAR
Protocol: (§1) ERK1/2 phosphorylation is a downstream consequence of both Gq/11 and Gi/o protein coupled receptor activation, making it highly suitable for the assessment of M1, M3 (Gq/11 coupled) and M2, M4 receptors (Gi/o coupled), rather than using different assay formats for different receptor subtypes. CHO cells stably expressing the human muscarinic M1, M2, M3 or M4 receptor were plated (25K/well) onto 96-well tissue culture plates in MEM-alpha+10% dialysed FBS. Once adhered, cells were serum-starved overnight. Agonist stimulation was performed by the addition of 5 μL agonist to the cells for 5 min (37° C.). Media was removed and 50 μL of lysis buffer added. After […], a 4 μL sample was transferred to 384-well plate and 7 μL of detection mixture added.
(§2) Isomer assignment (Isomer 1, Isomer 2, etc.) is based on the retention time of the compound using the separation technique that was performed in the final purification step. By implication, this could be reversed phase HPLC, chiral HPLC or chiral SFC retention time, and this will vary from compound to compound.

[2] = target: T2, human muscarinic M1 receptor (Homo sapiens, UniProt P11229); test: Alphascreen Surefire phospho-ERK1/2 functional assay, M1; assay type: cell-based; conditions: for EC50: agonist 5 min, 37° C.; for Emax: CHO
T2 sequence (P11229 1-460): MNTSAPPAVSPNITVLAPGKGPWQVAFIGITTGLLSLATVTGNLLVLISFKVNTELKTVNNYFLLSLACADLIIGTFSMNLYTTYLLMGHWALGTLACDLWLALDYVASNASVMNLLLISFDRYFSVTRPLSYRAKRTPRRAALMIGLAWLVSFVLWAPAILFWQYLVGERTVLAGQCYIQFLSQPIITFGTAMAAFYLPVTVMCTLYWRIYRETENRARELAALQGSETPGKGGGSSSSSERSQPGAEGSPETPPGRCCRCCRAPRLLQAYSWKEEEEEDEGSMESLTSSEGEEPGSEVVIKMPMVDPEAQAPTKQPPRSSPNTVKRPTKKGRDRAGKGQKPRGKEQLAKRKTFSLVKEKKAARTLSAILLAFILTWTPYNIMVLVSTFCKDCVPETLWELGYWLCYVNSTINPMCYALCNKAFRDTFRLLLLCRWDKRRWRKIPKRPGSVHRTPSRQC
Protocol: as §1, §2

[3] = CHO cells stably expressing human M1, read-out: pEC50 M1 (converted)
[4] = read-out: % Emax cf. ACh, M4, CHO cells stably expressing human M4, Emax relative to ACh
[5] = read-out: % Emax cf. ACh, M1, CHO cells stably expressing human M1, Emax relative to ACh

EC50 [1] [nM] | EC50 [2, 3] [nM] | Emax [1, 4] [%] | Emax [2, 5] [%] | % Emax cf. ACh, M4 ([1]; Emax relative to ACh, listed as 4-5 Isomer 2) [%] | % Emax cf. ACh, M1 ([2]; CHO cells stably expressing human M1, Emax relative to ACh, listed as 4-5 Isomer 2) [%] | % Emax cf. ACh, M4 ([1]; Emax relative to ACh, listed as 4-9 Isomer 2) [%] | % Emax cf. ACh, M1 ([2]; CHO cells stably expressing human M1, Emax relative to ACh, listed as 4-9 Isomer 2) [%] | SMILES | Emax ([1]; read-out: % Emax cf. ACh, M4) [%] | Emax ([2]; read-out: % Emax cf. ACh, M1) [%] | EC50 ([2]; pEC50 M1, CHO cells stably expressing human M1) [nM]
> 20000 | 1020 | 9 | 58 |  |  |  |  | CCOC(=O)N1CC2CCC1CC2N1CC(CC(=O)N2CCCOCC2)C1 (single isomer, unassigned) [Example 2-4 Isomer 1, Ethyl-5-(3-(2-(1,4-oxazepan-4-yl)-2-oxoethyl)azetidin-1-yl)-2-azabicyclo[2.2.2]octane-2-carboxylate] |  |  | 
1020 | 372 | 46 | 104 |  |  |  |  | CCOC(=O)N1CCC2(CC(N3CC(OC(=O)N4CCCOCC4)C3)C2)C1 (single isomer, unassigned) [Example 4-3 Isomer 2, 1-(6-(Ethoxycarbonyl)-6-azaspiro[3.4]octan-2-yl)azetidin-3-yl 1,4-oxazepane-4-carboxylate] |  |  | 
> 20000 | 1120 |  |  | 10 | 44 |  |  | CCOC(=O)N1CC2(CCC(N3CC(OC(=O)N(CC)CC)C3)C2)C1 (single isomer, unassigned) [Example 4-5 Isomer 2, Ethyl 6-(3-((diethylcarbamoyl)oxy)azetidin-1-yl)-2-azaspiro[3.4]octane-2-carboxylate] |  |  | 
389 | 5620 |  |  |  |  | 85 | 84 | CCOC(=O)N1CC2(CCC(N3CC(OC(=O)N4CCCOCC4)C3)C2)C1 (single isomer, unassigned) [Example 4-9 Isomer 2, 1-(2-(Ethoxycarbonyl)-2-azaspiro[3.4]octan-6-yl)azetidin-3-yl 1,4-oxazepane-4-carboxylate] |  |  | 
> 20000 | 1050 | 9 | 65 |  |  |  |  | CCOC(=O)N1CC2CCC1CC2N1CC(OC(=O)N(CC)CC)C1 (single isomer, unassigned) [Example 6-1 Isomer 1, Ethyl 5-(3-((diethylcarbamoyl)oxy)azetidin-1-yl)-2-azabicyclo[2.2.2]octane-2-carboxylate] |  |  | 
646 | 6920 | 55 | 83 |  |  |  |  | CCOC(=O)N1CC2CCC1CC2N1CC(OC(=O)N2CCCC2)C1 (single isomer, unassigned) [Example 6-2 Isomer 1, Ethyl 5-(3-((pyrrolidine-1-carbonyl)oxy)azetidin-1-yl)-2-azabicyclo[2.2.2]octane-2-carboxylate] |  |  | 
1620 | 355 | 35 | 92 |  |  |  |  | CCOC(=O)N1CC2CCC1CC2N1CC(OC(=O)N2CCCCC2)C1 (single isomer, unassigned) [Example 6-3 Isomer 1, Ethyl 5-(3-((piperidine-1-carbonyl)oxy)azetidin-1-yl)-2-azabicyclo[2.2.2]octane-2-carboxylate] |  |  | 
> 20000 | 813 | 27 | 58 |  |  |  |  | CCOC(=O)N1CC2CCC1CC2N1CC(OC(=O)N2CCCOCC2)C1 (single isomer, unassigned) [Example 6-5 Isomer 1, 1-(2-(Ethoxycarbonyl)-2-azabicyclo[2.2.2]octan-5-yl)azetidin-3-yl 1,4-oxazepane-4-carboxylate] |  |  | 
1700 | 832 | 57 | 83 |  |  |  |  | CCOC(=O)N1CC2(CC(N3CC(OC(=O)N(CC)CC)C3)C2)C1 [Example 4-1, Ethyl 6-(3-((diethylcarbamoyl)oxy)azetidin-1-yl)-2-azaspiro[3.3]heptane-2-carboxylate] |  |  | 

The remaining lines, values behind:

SMILES | EC50 [1] [nM] | EC50 [2, 3] [nM] | Emax [1, 4] [%] | Emax [2, 5] [%] | % Emax cf. ACh, M4 ([1]; Emax relative to ACh, listed as 4-5 Isomer 2) [%] | % Emax cf. ACh, M1 ([2]; CHO cells stably expressing human M1, Emax relative to ACh, listed as 4-5 Isomer 2) [%] | % Emax cf. ACh, M4 ([1]; Emax relative to ACh, listed as 4-9 Isomer 2) [%] | % Emax cf. ACh, M1 ([2]; CHO cells stably expressing human M1, Emax relative to ACh, listed as 4-9 Isomer 2) [%] | Emax ([1]; read-out: % Emax cf. ACh, M4) [%] | Emax ([2]; read-out: % Emax cf. ACh, M1) [%] | EC50 ([2]; pEC50 M1, CHO cells stably expressing human M1) [nM]
CCOC(=O)N1C2CCC1CC(N1CC(CC(=O)N(CC)C(C)C)C1)C2 (mixture of isomers) [Example 1-2 Isomer mixture, Ethyl-3-(3-(2-(ethyl(isopropyl)amino)-2-oxoethyl)azetidin-1-yl)-8-azabicyclo[3.2.1]octane-8-carboxylate] | > 20000 | 182 |  |  |  |  |  |  | 7 | 100 | 
CCOC(=O)N1C2CCC1CC(N1CC(OC(=O)N3CCCOCC3)C1)C2 (mixture of isomers) [Example 5-2 Isomer mixture, 1-(8-(Ethoxycarbonyl)-8-azabicyclo[3.2.1]octan-3-yl)azetidin-3-yl 1,4-oxazepane-4-carboxylate] | > 20000 | 2240 |  |  |  |  |  |  | 19 | 92 | 
CCOC(=O)N1C2CCC1CC(N1CC(CC(=O)N3CCC34CCC4)C1)C2 (single isomer, unassigned) [Example 1-3 Isomer 2, Ethyl-3-(3-(2-oxo-2-(1-azaspiro[3.3]heptan-1-yl)ethyl)azetidin-1-yl)-8-azabicyclo[3.2.1]octane-8-carboxylate] | > 20000 | 115 |  |  |  |  |  |  | 19 | 103 | 
CCOC(=O)N1C2CCCC1CC(N1CC(CC(=O)N(CC)CC)C1)C2 (single isomer, unassigned) [Example 3-1 Isomer 1, Ethyl-3-(3-(2-(diethylamino)-2-oxoethyl)azetidin-1-yl)-9-azabicyclo[3.3.1]nonane-9-carboxylate] | > 20000 | 813 |  |  |  |  |  |  | 23 | 106 | 
CCOC(=O)N1C2CCCC1CC(N1CC(CC(=O)N3CCCC3)C1)C2 (single isomer, unassigned) [Example 3-2 Isomer 1, Ethyl-3-(3-(2-oxo-2-(pyrrolidin-1-yl)ethyl)azetidin-1-yl)-9-azabicyclo[3.3.1]nonane-9-carboxylate] | 933 | 4790 |  |  |  |  |  |  | 68 | 68 | 
CCN(CC)C(=O)OC1CN(C2CCC3(C2)CN(C(=O)OC)C3)C1 (single isomer, unassigned) [Example 4-6 Isomer 1, Methyl 6-(3-((diethylcarbamoyl)oxy)azetidin-1-yl)-2-azaspiro[3.4]octane-2-carboxylate] | 1120 | 631 | 33 | 92 |  |  |  |  |  |  | 
CCOC(=O)N1C2CCCC1CC(N1CC(OC(=O)N(CC)CC)C1)C2 (single isomer, unassigned) [Example 7-1 Isomer 1, Ethyl 3-(3-((diethylcarbamoyl)oxy)azetidin-1-yl)-9-azabicyclo[3.3.1]nonane-9-carboxylate] | 2290 |  |  |  |  |  |  |  | 29 | 88 | 1290
CCOC(=O)N1C2COCC1CC(N1CC(OC(=O)N3CCCCCC3)C1)C2 (single isomer, unassigned) [Example 8-1 Isomer 1, Ethyl 7-(3-((azepane-1-carbonyl)oxy)azetidin-1-yl)-3-oxa-9-azabicyclo[3.3.1]nonane-9-carboxylate] | 1860 | 257 |  |  |  |  |  |  | 43 | 104 | 
